The values that follow come from US20250026725A1, “HYDRATE CRYSTAL OF 5-CHLORO-4-(3-CHLORO-4- METHYLPHENYL)-1H-IMIDAZOLE-2-CARBONITRILE” (ISHIHARA SANGYO KAISHA, LTD., priority 2021, published 2025).

Type in all cases: cell-based
Assay [1] has as its system Staphylococcus pseudintermedius (JCM 17571). The assay can be described thus: Antimicrobial activity test, minimum bactericidal concentration (MBC100). The conditions noted are these: JCM17571, S. pseudintermedius, 1 minute contact, then culture at 30° C. for 72 hours. The procedure:
Staphylococcus pseudintermedius that had been cultured on a Luria Broth (LB) agar medium plate (peptone, yeast extract, sodium chloride, agar, from Invitrogen) for 24 hours was suspended in physiological saline to prepare so as to have an absorbance of 0.025 at 600 nm. The compound under test dissolved in DMSO was added thereto so as to have final concentrations of 200, 100, 50, and 25 ppm, and 1 minute later, 10 μL of suspension and 10 mL of physiological saline were added to a syringe and stirred. After that, the mixture was filtered by connecting to a 37 mm quality monitor (manufactured by Pall Corporation) and washed twice with 10 ml of physiological saline. As such, membrane filters were permeated with an LB medium, culturing was performed at 30° C. for 72 hours, the presence or absence of the development of colonies was examined to determine a minimum bactericidal concentration (MBC100). A minimum bactericidal concentration (MBC100) for Staphylococcus pseudintermedius (JCM 17571) was determined in the same method as in Test Example 6 except that the hydrate crystal (Production Example 2) was used as the compound under test.

For assay [2], the system named is Trichophyton rubrum (ATCCMYA4607). In words: Antifungal activity test, minimum inhibitory concentration (MIC100). The conditions noted are these: Sabouraud medium, 32° C. for 72 hours. As for the experimental part:
Trichophyton rubrum was cultured on a Sabouraud medium at 32° C. for 168 hours to form spores. Mycelia were peeled from a medium surface and collected into a tube, physiological saline solution (OTSUKA NORMAL SALINE; containing the equivalent of 9 g of sodium chloride in 1000 mL) was added thereto, and the entire mixture was mixed and dispersed with a disposable loop (Type 1 (1 μL)) to collect a spore suspension containing mycelia. The spore suspension containing mycelia was filtered through a cell strainer (+40 μm). Spores were collected from a filtrate by centrifugation (3500 rpm, 5 minutes), and washed twice with physiological saline to prepare a spore suspension (1×10^6 cells/mL). 10 μL of the spore suspension was inoculated into the Sabouraud medium to which the test compound dissolved in DMSO was added so as to have a predetermined concentration. Trichophyton rubrum was cultured at 32° C. for 72 hours, and then the presence or absence of the development of colonies was examined to determine a minimum inhibitory concentration (MIC100).
A minimum inhibitory concentration (MIC100) for Trichophyton rubrum (ATCCMYA4607) was determined in the same method as in Test Example 12 except that the hydrate crystal (Production Example 2) was used as the compound under test.

The subject of assay [3] is Malassezia restricta (IFM55992). The assay can be described thus: Antifungal activity test, minimum fungicidal concentration (MFC100). The conditions noted are these: 1 minute contact, MLNA medium 32° C. for 72 hours, read-out: Minimal fungicidal concentration (MFC100). As for the experimental part: A fungus of Malassezia (Malassezia restricta) that had been cultured on a CHROMagar (trademark) Malassezia/Candida raw medium (peptone, specialized enzyme-substrate mixture, chloramphenicol, olive oil, agar, manufactured by KANTO CHEMICAL CO., INC.) for 5 to 7 days was suspended in physiological saline to prepare so as to have an absorbance of 0.025 at 600 nm. The compound under test dissolved in DMSO was added thereto so as to have final concentrations of 200, 100, 50, and 25 ppm. 1 minute later, 10 μL of suspension and 10 mL of physiological saline were added to a syringe and stirred, and then the mixture was filtered by connecting to a 37 mm quality monitor (manufactured by Pall Corporation) and washed twice with 10 ml of physiological saline. The membrane filters were removed from the quality monitor, and placed and cultured on a Leeming & Notman agar Modified medium (MLNA medium) (peptone, glucose, yeast extract, dried bovine bile, glycerol, glycerin stearate, Tween 60, olive oil, agar) at 32° C. for 72 hours, and the presence or absence of the development of colonies was examined to determine a minimum fungicidal concentration MFC100). A minimum fungicidal concentration (MFC100) for Malassezia restricta (IFM55992) was determined in the same method as in Test Example 11 except that the hydrate crystal (Production Example 2) was used as the compound under test.

Assay [4] concerns Malassezia globosa (IFM 51946). The description is as above. The conditions noted are these: 1 minute contact, culture 32° C. for 72 hours, read-out: Minimal fungicidal concentration (MFC100). As for the experimental part:
(§1) Fungi of Malassezia (Malassezia furfur, Malassezia sympodialis, and Malassezia globosa) that had been cultured on a CHROMagar (trademark) Malassezia/Candida raw medium (peptone, specialized enzyme-substrate mixture, chloramphenicol, olive oil, agar, manufactured by KANTO CHEMICAL CO., INC.) for 5 to 7 days was suspended in physiological saline to prepare so as to have an absorbance of 0.025 at 600 nm. The compound under test dissolved in DMSO was added thereto so as to have final concentrations of 200, 100, 50, and 25 ppm. 1 minute later, 10 μL of suspension and 10 mL of physiological saline were added to a syringe and stirred, and then the mixture was filtered by connecting to a 37 mm quality monitor (manufactured by Pall Corporation) and washed twice with 10 ml of physiological saline. The membrane filters were removed from the quality monitor, and placed and cultured on the CHROMagar (trademark) Malassezia/Candida raw medium at 32° C. for 72 hours, and the presence or absence of the development of colonies was examined to determine a minimum fungicidal concentration (MFC100). Minimum fungicidal concentrations (MFC100) for Malassezia furfur (IFM 55951), Malassezia sympodialis (IFM 48588), and Malassezia globosa (IFM 51946) were determined in the same method as in Test Example 10 except that the hydrate crystal (Production Example 2) was used as the compound under test.

For assay [5], the system named is Malassezia sympodialis (IFM 48588). The description is as above. The conditions noted are these: 1 minute contact, culture 32° C. for 72 hours, read-out: Minimal fungicidal concentration (MFC100). As for the experimental part:
as §1

Assay [6] has as its system Malassezia furfur (IFM 55951). The description is as above. The conditions noted are these: 1 minute contact, culture 32° C. for 72 hours, read-out: Minimal fungicidal concentration (MFC100). As for the experimental part: as §1
Assay [7] has as its system Malassezia pachydermatis (IFM56528). Described as above. The conditions noted are these: 1 minute contact, culture 32° C. for 72 hours, read-out: Minimal fungicidal concentration (MFC100). The procedure: Malassezia pachydermatis that had been cultured on a Sabouraud medium (1% peptone, 4% […], 1.5% agar) for 5 to 7 days was suspended in physiological saline to prepare so as to have an absorbance of 0.025 at 600 nm. The compound under test dissolved in DMSO was added thereto so as to have final concentrations of 200, 100, 50, and 25 ppm. 1 minute later, 10 μL of suspension and 10 mL of physiological saline were added to a syringe and stirred, and then the mixture was filtered and washed by connecting to a 37 mm quality monitor (manufactured by Pall Corporation) and washed. As such, membrane filters were permeated with the Sabouraud medium, culturing was performed at 32° C. for 72 hours, the presence or absence of the development of colonies was examined to determine a minimum fungicidal concentration (MFC100). A minimum fungicidal concentration (MFC100) for Malassezia pachydermatis (IFM56528) was determined in the same method as in Test Example 9 except that the hydrate crystal (Production Example 2) was used as the compound under test.

Values after ≈ are worked out from the molar mass of the structure shown.

The MBC is the smallest concentration meeting the test's criterion for killing. A higher MBC goes with weaker bactericidal potency. One may read the MIC as the least concentration at which growth counts as inhibited. Read a high MIC as a less susceptible organism. As for `Cc1ccc(-c2nc(C#N)[nH]c2Cl)cc1Cl` [Anhydrous crystal, 5-chloro-4-(3-chloro-4-methylphenyl)-1H-imidazole-2-carbonitrile], the MBC in assay [1] stood at 50 µg/mL (≈ 198 µM). In assay [2], this molecule gave an MIC of 5 µg/mL (≈ 19.8 µM). For the same molecule, the MFC in assay [3] stood at 200 µg/mL (≈ 793 µM); in assay [4], 50 µg/mL (≈ 198 µM); in assay [5] it was 50 µg/mL (≈ 198 µM); in assay [6], 50 µg/mL (≈ 198 µM); in assay [7], 50 µg/mL (≈ 198 µM).
